The target in this assay is T1, human NK2 receptor (Homo sapiens, UniProt P21452).
T1 construct: purchased Perkin Elmer biosignal Inc. 6110510
T1 sequence (P21452 1-398): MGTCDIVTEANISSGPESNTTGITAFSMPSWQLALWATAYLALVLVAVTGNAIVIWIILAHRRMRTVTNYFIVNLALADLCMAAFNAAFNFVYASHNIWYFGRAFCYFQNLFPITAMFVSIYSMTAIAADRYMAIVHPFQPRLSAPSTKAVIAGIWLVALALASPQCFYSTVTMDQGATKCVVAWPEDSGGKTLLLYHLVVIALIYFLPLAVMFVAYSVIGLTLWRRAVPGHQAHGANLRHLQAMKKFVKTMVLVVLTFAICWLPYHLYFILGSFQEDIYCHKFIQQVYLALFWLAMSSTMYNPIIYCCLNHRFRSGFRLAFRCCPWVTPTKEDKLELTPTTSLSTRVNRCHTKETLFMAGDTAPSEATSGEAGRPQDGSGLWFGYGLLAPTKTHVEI
Description: [3H]SR48968 competition binding assay. The following applies: [3H]SR48968 displacement, membranes of CHO cells stably expressing recombinant human NK2 receptor; Ki from IC50 by Cheng-Prussoff. The protocol:
[^3H]SR48968 Competition Binding Assay
hNK2 receptor binding experiment were performed using [^3H]SR48968 (Catalog No. TRK398, specific activity: 27.0 Ci/mmol, Amersham, GE Healthcare UK limited, Buckinghamshire, UK) and membrane isolated from CHO cells stably expressing recombinant human NK2 receptor (product No. 6110510, Perkin Elmer biosignal Inc., Shelton, Conn., USA). After thawing, the membrane homogenates were centrifuged at 48,000×g for 10 min at 4° C., the pellets were resuspended in the 50 mM Tris-HCl, 3 mM MnCl2, 4 μg/mL Chymostatin, 0.04% BSA binding buffer at pH 7.4 to a final assay concentration of 6.5 μg protein/well. For inhibition experiments, membranes were incubated with [^3H]SR48968 at a concentration equal to KD value of radioligand and 10 concentrations of the inhibitory compound (0.0003-10 μM) (in a total reaction volume of 500 μl) for 75 min at room temperature (RT). At the end of the incubation, membranes were filtered onto unitfilter (96-well white microplate with bonded GF/C filter preincubated 1 h in 0.3% polyethylenimine, Packard BioScience, Meriden, Conn.) with a Filtermate 196 harvester (Packard BioScience) and washed 4 times with ice-cold 50 mM Tris-HCl, pH 7.4 buffer. Nonspecific binding was measured in the presence of 10 μM 1-{2-[(R)-3-(3,4-dichloro-phenyl)-1-(3,4,5-trimethoxy-benzoyl)-pyrrolidin-3-yl]-ethyl}-4-phenyl-piperidine-4-carboxylic acid amide. The radioactivity on the filter was counted (5 min) on a Packard Top-count microplate scintillation counter with quenching correction after addition of 45 μl of microscint 40 (Canberra Packard S. A., Zürich, Switzerland) and shaking for 1 h. Inhibition curves were fitted according to the Hill equation: y=100/(1+(x/IC50)^nH), where nH=slope factor using Excel-fit 4 software (Microsoft). IC50 values were derived from the inhibition curve and the affinity constant (Ki) values were calculated using the Cheng-Prussoff equation Ki=IC50/(1+[L]/KD) where [L] was the concentration of radioligand and KD was its dissociation constant at the receptor, derived from the saturation isotherm.
Usually Ki stands for a dissociation constant, usually derived from enzyme kinetics or from competition with a known ligand. Consider `COc1ccc(C(=O)N(C)[C@@H]2CN(C(=O)N3CCN(S(C)(=O)=O)CC3)C[C@H]2c2ccc(Cl)c(Cl)c2)cc1` (racemic) [Example 37, rac-N-[(3S,4R)-4-(3,4-Dichloro-phenyl)-1-(4-methanesulfonyl-piperazine-1-carbonyl)-pyrrolidin-3-yl]-4-methoxy-N-methyl-benzamide], for which the inhibition constant (Ki) is 8.89 nM.

For the compound `CN(C(=O)c1cc(C(F)(F)F)ccc1F)[C@@H]1CN(C(=O)N2CCN(S(C)(=O)=O)CC2)C[C@H]1c1ccc(Cl)c(Cl)c1` (racemic) [Example 38, rac-N-[(3S,4R)-4-(3,4-Dichloro-phenyl)-1-(4-methanesulfonyl-piperazine-1-carbonyl)-pyrrolidin-3-yl]-2-fluoro-N-methyl-5-trifluoromethyl-benzamide], the Ki worked out at 9.5 nM.

Turning to `CCN(C(=O)c1ccc(OC)c(C(F)(F)F)c1)[C@@H]1CN(C(=O)N2CCN(S(C)(=O)=O)CC2)C[C@H]1c1ccc(Cl)c(Cl)c1` (racemic) [Example 39, rac-N-[(3S,4R)-4-(3,4-Dichloro-phenyl)-1-(4-methanesulfonyl-piperazine-1-carbonyl)-pyrrolidin-3-yl]-N-ethyl-4-methoxy-3-trifluoromethyl-benzamide], the Ki worked out at 68.3 nM.

With `COc1ccc(C(=O)N(C)[C@@H]2CN(C(=O)c3ccc(C#N)cc3)C[C@H]2c2ccc(Cl)c(Cl)c2)cc1C(F)(F)F` (racemic) [Example 41, rac-N-[(3S,4R)-1-(4-Cyano-benzoyl)-4-(3,4-dichloro-phenyl)-pyrrolidin-3-yl]-4-methoxy-N-methyl-3-trifluoromethyl-benzamide], the inhibition constant Ki stood at 1.45 nM.

Consider `COc1ccc(C(=O)N2C[C@@H](N(C)C(=O)c3ccc(OC)c(C(F)(F)F)c3)[C@H](c3ccc(Cl)c(Cl)c3)C2)cc1` (racemic) [Example 44, rac-N-[(3S,4R)-4-(3,4-Dichloro-phenyl)-1-(4-methoxy-benzoyl)-pyrrolidin-3-yl]-4-methoxy-N-methyl-3-trifluoromethyl-benzamide], for which the inhibition constant Ki was 4.24 nM.

As to `COc1ccc(C(=O)N(C)[C@@H]2CN(C(=O)c3ccc(N(C)C)cc3)C[C@H]2c2ccc(Cl)c(Cl)c2)cc1C(F)(F)F` (racemic) [Example 45, rac-N-[(3S,4R)-4-(3,4-Dichloro-phenyl)-1-(4-dimethylamino-benzoyl)-pyrrolidin-3-yl]-4-methoxy-N-methyl-3-trifluoromethyl-benzamide], the Ki came out at 2.98 nM.

On to `COc1ccc(C(=O)N(C)[C@@H]2CN(C(=O)c3ccc(F)cc3)C[C@H]2c2ccc(Cl)c(Cl)c2)cc1C(F)(F)F` (racemic) [Example 46, rac-N-[(3S,4R)-4-(3,4-Dichloro-phenyl)-1-(4-fluoro-benzoyl)-pyrrolidin-3-yl]-4-methoxy-N-methyl-3-trifluoromethyl-benzamide], for which the Ki turned out to be 3.26 nM.

In the case of `COc1ccc(C(=O)N(C)[C@@H]2CN(C(=O)c3cccc(C#N)c3)C[C@H]2c2ccc(Cl)c(Cl)c2)cc1C(F)(F)F` (racemic) [Example 47, rac-N-[(3S,4R)-1-(3-Cyano-benzoyl)-4-(3,4-dichloro-phenyl)-pyrrolidin-3-yl]-4-methoxy-N-methyl-3-trifluoromethyl-benzamide], the inhibitory constant (Ki) worked out at 3.65 nM.

Consider `COc1ccc(C(=O)N(C)[C@@H]2CN(C(=O)c3ccc4occc4c3)C[C@H]2c2ccc(Cl)c(Cl)c2)cc1C(F)(F)F` (racemic) [Example 48, rac-N-[(3S,4R)-1-(Benzofuran-5-carbonyl)-4-(3,4-dichloro-phenyl)-pyrrolidin-3-yl]-4-methoxy-N-methyl-3-trifluoromethyl-benzamide], for which the Ki came to 5.36 nM.

With `COc1ccc(C(=O)N(C)[C@@H]2CN(C(=O)c3cc(S(C)(=O)=O)ccc3F)C[C@H]2c2ccc(Cl)c(Cl)c2)cc1C(F)(F)F` (racemic) [Example 49, rac-N-[(3S,4R)-4-(3,4-Dichloro-phenyl)-1-(2-fluoro-5-methanesulfonyl-benzoyl)-pyrrolidin-3-yl]-4-methoxy-N-methyl-3-trifluoromethyl-benzamide], the inhibitory constant (Ki) came out at 2.53 nM.

As to `COc1ccc(C(=O)N(C)[C@@H]2CN(C(=O)c3ccc(C(F)(F)F)cc3)C[C@H]2c2ccc(Cl)c(Cl)c2)cc1C(F)(F)F` (racemic) [Example 50, rac-N-[(3S,4R)-4-(3,4-Dichloro-phenyl)-1-(4-trifluoromethyl-benzoyl)-pyrrolidin-3-yl]-4-methoxy-N-methyl-3-trifluoromethyl-benzamide], the Ki is 6.3 nM.

On to `COc1ccc(C(=O)N(C)[C@@H]2CN(C(=O)c3ccncc3)C[C@H]2c2ccc(Cl)c(Cl)c2)cc1C(F)(F)F` (racemic) [Example 51, rac-N-[(3S,4R)-4-(3,4-Dichloro-phenyl)-1-(pyridine-4-carbonyl)-pyrrolidin-3-yl]-4-methoxy-N-methyl-3-trifluoromethyl-benzamide], for which the inhibition constant (Ki) is 3 nM.

For `COc1ccc(C(=O)N(C)[C@@H]2CN(C(=O)c3cc(Cl)nc(Cl)c3)C[C@H]2c2ccc(Cl)c(Cl)c2)cc1C(F)(F)F` (racemic) [Example 52, rac-N-[(3S,4R)-4-(3,4-Dichloro-phenyl)-1-(2,6-dichloro-pyridine-4-carbonyl)-pyrrolidin-3-yl]-4-methoxy-N-methyl-3-trifluoromethyl-benzamide], the Ki worked out at 3.72 nM.

With `COc1ccc(C(=O)N(C)[C@@H]2CN(C(=O)c3ccc(OC(F)(F)F)cc3)C[C@H]2c2ccc(Cl)c(Cl)c2)cc1C(F)(F)F` (racemic) [Example 53, rac-N-[(3S,4R)-4-(3,4-Dichloro-phenyl)-1-(4-trifluoromethoxy-benzoyl)-pyrrolidin-3-yl]-4-methoxy-N-methyl-3-trifluoromethyl-benzamide], the inhibition constant (Ki) turned out to be 2.91 nM.

As to `COc1ccc(C(=O)N(C)[C@@H]2CN(C(=O)c3cccc(S(C)(=O)=O)c3)C[C@H]2c2ccc(Cl)c(Cl)c2)cc1C(F)(F)F` (racemic) [Example 54, rac-N-[(3S,4R)-4-(3,4-Dichloro-phenyl)-1-(3-methanesulfonyl-benzoyl)-pyrrolidin-3-yl]-4-methoxy-N-methyl-3-trifluoromethyl-benzamide], the Ki is 3.81 nM.

With `COc1ccc(C(=O)N2C[C@@H](N(C)C(=O)c3ccc(OC)c(C(F)(F)F)c3)[C@H](c3ccc(Cl)c(Cl)c3)C2)cc1C` (racemic) [Example 55, rac-N-[(3S,4R)-4-(3,4-Dichloro-phenyl)-1-(4-methoxy-3-methyl-benzoyl)-pyrrolidin-3-yl]-4-methoxy-N-methyl-3-trifluoromethyl-benzamide], the Ki was 2.06 nM.

As for `COc1ccc(C(=O)N(C)[C@@H]2CN(C(=O)c3cc(C)cc(C)c3)C[C@H]2c2ccc(Cl)c(Cl)c2)cc1C(F)(F)F` (racemic) [Example 56, rac-N-[(3S,4R)-4-(3,4-Dichloro-phenyl)-1-(3,5-dimethyl-benzoyl)-pyrrolidin-3-yl]-4-methoxy-N-methyl-3-trifluoromethyl-benzamide], the Ki is 9.52 nM.

As for `COc1ccc(C(=O)N(C)[C@@H]2CN(C(=O)c3ccc(C(C)=O)cc3)C[C@H]2c2ccc(Cl)c(Cl)c2)cc1C(F)(F)F` (racemic) [Example 57, rac-N-[(3S,4R)-1-(4-Acetyl-benzoyl)-4-(3,4-dichloro-phenyl)-pyrrolidin-3-yl]-4-methoxy-N-methyl-3-trifluoromethyl-benzamide], the inhibitory constant (Ki) turned out to be 1.55 nM.

Consider `COc1ccc(C(=O)N(C)[C@@H]2CN(C(=O)c3cc(C)n(C)n3)C[C@H]2c2ccc(Cl)c(Cl)c2)cc1C(F)(F)F` (racemic) [Example 58, rac-N-[(3S,4R)-4-(3,4-Dichloro-phenyl)-1-(1,5-dimethyl-1H-pyrazole-3-carbonyl)-pyrrolidin-3-yl]-4-methoxy-N-methyl-3-trifluoromethyl-benzamide], for which the Ki was 8.52 nM.

Turning to `CN(C(=O)c1cc(Cl)ccn1)[C@@H]1CN(C(=O)c2ccc(C#N)cc2)C[C@H]1c1ccc(Cl)c(Cl)c1` (racemic) [Example 59, rac-4-Chloro-pyridine-2-carboxylic acid [(3S,4R)-1-(4-cyano-benzoyl)-4-(3,4-dichloro-phenyl)-pyrrolidin-3-yl]-methyl-amide], the Ki was 12.8 nM.

For the origin of these results see US8404679B2, “Pyrrolidine derivatives as NK2 receptor antagonists” (Hoffmann-La Roche Inc., priority 2008, dated 2013).
